Our source for the GI50 and TGI values is PubChem BioAssay (NCI).

Among the test systems are OVCAR-8 ovarian; A498 renal; SNB-19 CNS; HT29 colon; HOP-62 NSCLC; IGROV1 ovarian; KM12 colon; NCI-H460 lung; MOLT-4 leukemia; NCI-H522 lung.
What all share (assay): inhibition of tumour cell growth, NCI panel, 48 h

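Test compounds were applied to cells in 96-well plates for 48 hours at 5 doses. GI50: concentration for 50% inhibition of growth. At the TGI there is no net growth.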

As for `CN1CCN(c2nc(-c3csc(-c4cccs4)n3)cc3ccccc23)CC1`, the GI50 in the assay with OVCAR-8 ovarian was 1.89 µM; in the assay with A498 renal it was 1.47 µM; with SNB-19 CNS, 2.14 µM; in the assay on HT29 colon, 1.66 µM; with HOP-62 NSCLC, 1.81 µM; with IGROV1 ovarian it was 1.57 µM. Also, the GI50 in the assay with KM12 colon was 1.84 µM; in the assay on NCI-H460 lung, 1.78 µM; with MOLT-4 leukemia, 2.03 µM; in the assay with NCI-H522 lung, 1.94 µM. Also, the TGI with OVCAR-8 ovarian was found to be 3.97 µM; in the assay with A498 renal, 3.27 µM; in the assay on SNB-19 CNS it was 5.36 µM; in the assay with HT29 colon, 3.41 µM; with HOP-62 NSCLC, 3.67 µM; in the assay on IGROV1 ovarian, 3.12 µM. The TGI worked out at 3.39 µM with KM12 colon, 3.25 µM with NCI-H460 lung, 4.15 µM in the assay with MOLT-4 leukemia and 3.95 µM with NCI-H522 lung.
Regarding `O=C(NCCCl)SCCO`, the TGI in the assay with OVCAR-8 ovarian, in the assay on A498 renal, in the assay with SNB-19 CNS, in the assay on HT29 colon, in the assay on HOP-62 NSCLC and in the assay with IGROV1 ovarian was > 100 µM each time. The TGI with KM12 colon, in the assay with NCI-H460 lung, in the assay on MOLT-4 leukemia and with NCI-H522 lung was > 100 µM in each case.
Consider `CCC(C)C(=O)OCC(=O)c1ccc(-c2ccccc2)cc1` (stereo not given), for which the TGI in the assay on OVCAR-8 ovarian, with A498 renal, in the assay with SNB-19 CNS, with HT29 colon, in the assay on HOP-62 NSCLC and in the assay with IGROV1 ovarian was > 100 µM in each case. Further, the TGI is > 100 µM in the assay with KM12 colon, > 100 µM in the assay on NCI-H460 lung, > 100 µM in the assay with MOLT-4 leukemia and 74.9 µM with NCI-H522 lung.
`O=C1OC(=O)C2C3C=CC(C12)C1C2C=CC2C31` (stereo not given): the TGI with OVCAR-8 ovarian, with A498 renal, in the assay with SNB-19 CNS, with HT29 colon, in the assay on HOP-62 NSCLC and in the assay with IGROV1 ovarian was > 100 µM in each case. The TGI in the assay with KM12 colon, in the assay with NCI-H460 lung, in the assay on MOLT-4 leukemia and with NCI-H522 lung was > 100 µM in each case.
Regarding `CC([O-])=C1C(=O)c2ccccc2C1=O.CC([O-])=C1C(=O)c2ccccc2C1=O.CC[O-].CC[O-].[Ti+4]`, the GI50 with OVCAR-8 ovarian is > 100 µM; with A498 renal, > 100 µM; in the assay with SNB-19 CNS, 44.1 µM; in the assay on HT29 colon, > 100 µM; in the assay with HOP-62 NSCLC it was > 100 µM; with IGROV1 ovarian, > 100 µM. For the same molecule, the GI50 in the assay on KM12 colon, in the assay on NCI-H460 lung, in the assay with MOLT-4 leukemia and in the assay on NCI-H522 lung was > 100 µM in each case. The TGI in the assay with OVCAR-8 ovarian, in the assay with A498 renal, in the assay with SNB-19 CNS, in the assay on HT29 colon, with HOP-62 NSCLC and in the assay with IGROV1 ovarian was > 100 µM each time. The TGI with KM12 colon, in the assay with NCI-H460 lung, in the assay on MOLT-4 leukemia and in the assay on NCI-H522 lung was > 100 µM throughout.
Regarding `NC(=O)c1sc(-n2cnc3cc(C(F)(F)F)ccc32)cc1OCc1ccccc1Br`, the GI50 is 21.4 µM in the assay on OVCAR-8 ovarian; > 25 µM in the assay on A498 renal; > 19.1 µM in the assay on SNB-19 CNS; > 19.5 µM with HT29 colon; 6.49 µM in the assay with HOP-62 NSCLC; > 25 µM in the assay with IGROV1 ovarian. Moreover, the GI50 was > 19.9 µM with KM12 colon, > 19.6 µM in the assay with NCI-H460 lung, > 25 µM with MOLT-4 leukemia and > 20 µM in the assay with NCI-H522 lung. The TGI is > 25 µM with OVCAR-8 ovarian; > 25 µM with A498 renal; > 25 µM in the assay on SNB-19 CNS; > 25 µM with HT29 colon; > 16.9 µM in the assay on HOP-62 NSCLC; > 25 µM in the assay on IGROV1 ovarian. The TGI in the assay on KM12 colon, in the assay on NCI-H460 lung, in the assay on MOLT-4 leukemia and in the assay on NCI-H522 lung was > 25 µM each time.
Turning to `O=c1[nH]cnc2c(COCCO)c[nH]c12`, the TGI with OVCAR-8 ovarian, in the assay with A498 renal, with SNB-19 CNS, in the assay with HT29 colon, in the assay on HOP-62 NSCLC and with IGROV1 ovarian was > 100 µM in each case. Moreover, the TGI with KM12 colon, in the assay with NCI-H460 lung, in the assay with MOLT-4 leukemia and with NCI-H522 lung was > 100 µM in each case.
As for `N#Cc1cccc(C=NC23CC4CC(CC(C4)C2)C3)c1`, the TGI with OVCAR-8 ovarian, in the assay on A498 renal, in the assay on SNB-19 CNS, with HT29 colon, in the assay on HOP-62 NSCLC and with IGROV1 ovarian was > 100 µM in each case. The TGI in the assay with KM12 colon, in the assay with NCI-H460 lung, with MOLT-4 leukemia and in the assay with NCI-H522 lung was > 100 µM each time.
With `COc1cc(Cl)cc(-c2nn(-c3cccc(NC(=O)Nc4ccc(Cl)c(Cl)c4)c3)cc2-c2ccncc2)c1`, the GI50 in the assay with OVCAR-8 ovarian was 2.3 µM; in the assay with A498 renal, 2.52 µM; in the assay with SNB-19 CNS, 3.51 µM; in the assay with HT29 colon, 2.38 µM; in the assay with HOP-62 NSCLC, 3.38 µM; in the assay on IGROV1 ovarian, 4.35 µM. For the same molecule, the GI50 in the assay with KM12 colon was 2.02 µM; with NCI-H460 lung, 2.27 µM; in the assay with MOLT-4 leukemia, 1.69 µM; with NCI-H522 lung, 1.29 µM. Besides, the TGI is 11.2 µM in the assay with OVCAR-8 ovarian; 90.9 µM in the assay on A498 renal; > 100 µM in the assay with SNB-19 CNS; 9.07 µM with HT29 colon; 35.1 µM in the assay with HOP-62 NSCLC; > 100 µM in the assay with IGROV1 ovarian. Besides, the TGI in the assay with KM12 colon came to 10.8 µM; in the assay with NCI-H460 lung it was 13.9 µM; in the assay on MOLT-4 leukemia, 6.13 µM; in the assay on NCI-H522 lung it was 4.48 µM.
In the case of `O=Cc1ccc(-c2ccc(-c3nc4ccccc4s3)cc2)s1`, the GI50 with OVCAR-8 ovarian was 80.9 µM; in the assay with A498 renal it was > 100 µM; in the assay on SNB-19 CNS, > 100 µM; in the assay on HT29 colon it was 77.3 µM; with HOP-62 NSCLC, > 100 µM; in the assay on IGROV1 ovarian, 55.8 µM. Moreover, the GI50 in the assay with KM12 colon is 38.4 µM; in the assay with NCI-H460 lung, 83.5 µM; in the assay with MOLT-4 leukemia it was 51.5 µM; with NCI-H522 lung, 69.1 µM. The TGI in the assay with OVCAR-8 ovarian, in the assay on A498 renal, in the assay with SNB-19 CNS, in the assay on HT29 colon, with HOP-62 NSCLC and in the assay with IGROV1 ovarian was > 100 µM each time. Further, the TGI with KM12 colon, with NCI-H460 lung, in the assay with MOLT-4 leukemia and in the assay with NCI-H522 lung was > 100 µM in each case.
